Patent publication US20250049713A1, “LIPID NANOPARTICLES FOR DELIVERY OF AGENTS” (Massachusetts Institute of Technology, priority 2023, published 2025)

Tested on: VE-cadherin (Cdh5) mRNA
Assay: In vivo endothelial Cdh5 gene silencing after intravenous siCdh5 LNP, tissue mRNA by RT-qPCR
Set-up: species or system mice
Details: for RNA delivery to endothelial cells vs DOTAP and EDMPC: formulation screening, summary statement
Description: Cadherin (Cdh5), also known as vascular endothelial cadherin (VE-cadherin) is a useful target gene to evaluate endothelial cell siRNA delivery in that Cdh5 expression is strictly limited to endothelial cells. By quantifying Cdh5 mRNA remaining in the tissues after siCdh5 administration, RNA delivery efficiency to endothelial cells can be evaluated.
Animal Experiments: All animal studies were approved by the MIT Institutional Animal Care and Use Committee (CAC) and were consistent with local, state, and federal regulations as applicable. All experimental procedures were performed with ethical compliance and approval under the guidelines for Division of Comparative Medicine by Massachusetts Institute of Technology. Female C57BL/6 mice (6 weeks) were obtained from Jackson Laboratory, housed in an MIT animal facility, and acclimated for at least 3 days before the initiation of a study.
For intravenous administration, siRNA-lipid nanoparticles diluted in PBS were injected […] using 29 g, 3/10 cc insulin syringes (BD Biosciences) after gentle warming of the animals using a heat lamp. For intramuscular administration, siRNA-lipid nanoparticles diluted in PBS were injected […] using 29 g, 3/10 cc insulin syringes (BD Biosciences).
48-72 hours after injection, organs or tissues including the heart, liver, spleen, lung, kidneys, muscle (quadriceps), and brain were collected and soaked in RNAlater solution (Thermo Fisher) for 12-48 hours at 4° C. and stored at −20° C. after the removal of RNAlater.
Tissue mRNA Quantification by RT-qPCR: Total RNA was isolated from tissues using the TRIzol (Thermo Fisher) and Direct-zol-96 MagBead (Zymo Research), or Quick-RNA MagBead (Zymo Research). Briefly, tissue punches were placed in a deep-well 96 well plate with 4-mm stainless beads and lysed with 350 μL TRIzol, or 250 μL DNA/RNA Shield (Zymo Reaearch) using a GenoGrinder2010. Total RNA was further purified using Direct-zol-96 MagBead (Zymo Research) or Quick-RNA MagBead (Zymo Research) according to the manufacturer's protocol.
cDNA was synthesized using ABI High Capacity cDNA Reverse Transcription Kit (Applied Biosystems #4368814) according to manufacturer instructions. Briefly, 5 μl of a master mix containing 1 μl 10X Buffer, 0.4 μl 25X dNTPs, 1 μl 10X Random primers, 0.5 μl Reverse Transcriptase, and 2.1 μl of water per reaction was added to 5 μl total RNA solution that was isolated using the above protocol. Plates were sealed, mixed, and incubated on a thermal cycler for 10 minutes at 25° C., followed by 2 hours at 37° C. and 5 minutes at 85° C.
Gene expression was analyzed in qPCR with Luna® Universal Probe RT-qPCR Kit (NEB) and Taqman probes-Cdh5 (Mm00486938_m1), and Gusb (Mm01197698_m1) or B2m (Mm00437762_m1). Samples were amplified using a LightCycler 480 qPCR machine (Roche). Cdh5 expression was normalized to B2m or Gusb.

[1] = Example 3: 20% cationic lipid LNPs, siCdh5 0.5 mg/kg i.v.

Row | SMILES | delivery to endothelial cells among screened cationic lipids [1] | RNA delivery to endothelial cells vs DOTAP and EDMPC | endothelial delivery, DPTAP (16:0 TAP) vs DSTAP (18:0 TAP) [1] | endothelial delivery, EDMPC (14:0 EPC) vs EDLPC (12:0 EPC) [1]
1 | CCCCCCCCCCCCCCCC(=O)OC[C@H](COP(=O)(OCC)OCC[N+](C)(C)C)OC(=O)CCCCCCCCCCCCCCC (some centres unmarked) [EDPPC, 1,2-dipalmitoyl-sn-glycero-3-ethylphosphocholine] | most efficacious delivery to endothelial cells | much more efficiently | – | –
2 | CCCCCCCCCCCCCCCC(=O)OCC(C[N+](C)(C)C)OC(=O)CCCCCCCCCCCCCCC (centres unmarked) [DPTAP, 1,2-dipalmitoyl-3-trimethylammonium-propane] | most efficacious delivery to endothelial cells | much more efficiently | significantly more efficient endothelial delivery | –
3 | CCCCCCCCCCCCCC(=O)OC[C@H](COP(=O)(OCC)OCC[N+](C)(C)C)OC(=O)CCCCCCCCCCCCC (some centres unmarked) [EDMPC, 1,2-dimyristoyl-sn-glycero-3-ethylphosphocholine] | – | – | – | more efficient endothelial delivery
4 | CCCCCCCCCCCCCC(=O)OCCN(CCOC(=O)CCCCCCCCCCCCC)C(=O)C[N+](C)(C)C [DC-6-14, O,O′-ditetradecanoyl-N-(a-trimethylammonioacetyl) diethanolamine] | most efficacious delivery to endothelial cells | much more efficiently | – | –
